These compounds were tested against T1, VHL-Elongin C-Elongin B (VCB) complex (Homo sapiens, UniProt P40337) (assay: Protein-observed NMR (1H-15N TROSY) titration of fragment hits against 15N-labeled VCB). Details: not given.
T1 construct: gene (residues 54-213) was cloned into pET28a(+) vector; Elongin C (residues 17-112); His-tag (cleaved yes); made in house; host or cells: E. coli BL21(DE3), M9 minimal media with 15NH4Cl
T1 sequence (P40337 54-213): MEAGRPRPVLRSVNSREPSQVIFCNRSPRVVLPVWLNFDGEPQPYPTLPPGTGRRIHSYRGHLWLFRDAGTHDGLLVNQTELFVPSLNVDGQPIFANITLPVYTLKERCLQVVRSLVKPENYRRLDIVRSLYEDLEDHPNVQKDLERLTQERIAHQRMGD
T1 sequence (Q15369 17-112, further chain): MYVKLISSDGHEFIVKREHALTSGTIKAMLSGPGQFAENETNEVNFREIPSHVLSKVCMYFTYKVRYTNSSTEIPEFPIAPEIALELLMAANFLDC
T1 sequence (Q15370 1-104 partner limits assumed): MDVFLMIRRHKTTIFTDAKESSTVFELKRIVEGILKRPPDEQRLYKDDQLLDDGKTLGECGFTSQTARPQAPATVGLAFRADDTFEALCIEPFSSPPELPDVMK
Assay type: binding
Experimental: All NMR experiments were carried out at 310K using a 900 MHz Bruker Avance III spectrometer equipped with a TXI/TCI CryoProbe and a Bruker SampleJet. Two-dimensional 1H-15N TROSY spectra of VCB complex were recorded using 30-minute acquisition time and analyzed using Topspin 4.1.4 (Bruker). […]
screened as mixtures of 12 fragments prepared in twelve 96-well plates. Each NMR sample was made of 100µM of 15N-labeled VCB, 800µM of each fragment, and 5% DMSO-d6 for spectrometer locking in 3mm-diameter NMR tubes (Bruker). Hit mixtures were identified by comparing the chemical shifts of the backbone resonances to a ligand-free VCB spectrum and then deconvoluted by screening individual fragments.
TROSY titration experiments were used to determine binding affinity of the fragment hits identified from the screen. […]
Work on `CC(C)N1CCN(Cc2ccccc2F)CC1` [compound 14] yielded a Kd of 3700 µM.

Same assay, conditions: TROSY titration, fragment 0.31-10 mM, 310K, Hill's equation model; hits grouped by binding pocket (A unknown, B VHL cryptic, C Elongin C, D HIF1α); read-out: NMR-derived binding affinity (KD)
`Clc1ccc(CN2CCCCC2)cc1Cl` [compound 6] was tested, and the Kd was 450 µM. In the case of `CN(C)CCN(C)Cc1ccc(F)cc1` [compound 12], the Kd is reported as 1300 µM. Compound `Cc1nc2cc(C(=O)O)ccc2n1C` [compound 16] has a Kd of 6000 µM. With `O=C1CCc2cc([N+](=O)[O-])ccc2N1` [compound 1] the Kd was 1700 µM. `CC(=O)N1CCc2ccc([N+](=O)[O-])cc21` [compound 9] was tested, and the Kd was 660 µM. `Nc1nc2ccccc2n1Cc1ccccc1` [compound 2] was tested, and the Kd was 490 µM. In the case of `O=C(O)c1ccnc2[nH]cnc12` [compound 17], the Kd is reported as 7500 µM. For `CC(=O)c1cccc(NC(=O)c2cccs2)c1` [compound 7], the Kd was 470 µM. In the case of `Nc1ccc2c(c1)ncn2CCO` [compound 15], the Kd is reported as 4000 µM. `CC(C)NC(=O)c1cc2ccc3cccnc3c2[nH]1` [compound 5] showed a Kd of 8200 µM. Compound `O=C(Nc1ccc(F)c(Cl)c1)c1cnccn1` [compound 10] has a Kd of 710 µM. `SC1=NC2(CCCC2)N=C1c1ccccc1` [compound 8] showed a Kd of 530 µM. For `CC(C)OC(=O)c1ccc(Cl)c(N)c1` [compound 4], the Kd was 5600 µM. In the case of `Cc1cc(Nc2cccc(O)c2)c2cccc(C)c2n1` [compound 11], the Kd is reported as 1600 µM.

Source: PMC12358976, “NMR-Based Fragment Screen of the von Hippel-Lindau Elongin C&B Complex” (ACS Medicinal Chemistry Letters, 2025)
